Activity calls are given as the source filed them. The rule behind the calls is not given here.
Key:
[1] = Tmax in Sprague-Dawley rat at 5 mg/kg, ip measured for 24 hrs by LC-MS/MS analysis; assay type: ADME, organism-based; conditions: in vivo
cells [2] = conditions: Homo sapiens, KATO III, 24 h, read-out: Activity
Description: Induction of apoptosis in human KATO III cells assessed as viable cells at 1000 nM incubated for 24 hrs by Annexin V-FITC/PI staining based flow cytometry (Rvb = 87.00 %)

[3] = Half life in Sprague-Dawley rat at 2 mg/kg, iv measured for 24 hrs by LC-MS/MS analysis; assay type: ADME, organism-based; conditions: in vivo
KATO III [4] = assay: Induction of apoptosis in human KATO III cells assessed as increase in cleaved caspase-3 level at 0.5 to 1 uM incubated for 24 hrs by Western blot analysis; assay type: functional, cell-based; conditions: dose 0.5-1 µM
[5] = Apparent volume of distribution during terminal phase in Sprague-Dawley rat at 5 mg/kg, ip measured for 24 hrs by LC-MS/MS analysis; assay type: ADME, organism-based; conditions: in vivo, read-out: Vz/F
SNU-16 [6] = assay: Antitumor activity against human SNU-16 cells xenografted in BALB/c mouse assessed as decrease in tumor weight at 10 to 20 mg/kg, ip qd for 25 days; assay type: functional, organism-based; conditions: dose 10-20 mg/kg, time 25.0 day
[7] = Half life in Sprague-Dawley rat at 5 mg/kg, ip measured for 24 hrs by LC-MS/MS analysis; assay type: ADME, organism-based; conditions: in vivo
KATO III [8] = assay: Induction of cell cycle arrest at G0/G1 phase in human KATO III cells assessed as reduction in CDK2 level at 500 to 1000 nM incubated for 24 hrs by Western blot analysis; assay type: functional, cell-based; conditions: dose 500-1000 nM
BaF3 [9] = assay: Antiproliferative activity against mouse BaF3 cells stably expressing TEL-FGFR1 incubated for 72 hrs bby CellTiter-Glo assay; conditions: BaF3, 72 h
KATO III [10] = assay: Induction of cell cycle arrest at G0/G1 phase in human KATO III cells assessed as reduction in CDK4 level at 500 to 1000 nM incubated for 24 hrs by Western blot analysis; assay type: functional, cell-based; conditions: dose 500-1000 nM
cells [11] = conditions: Homo sapiens, KATO III, 24 h, read-out: Activity; remark: listed apart in the source
Description: Induction of apoptosis in human KATO III cells assessed as viable cells at 500 nM incubated for 24 hrs by Annexin V-FITC/PI staining based flow cytometry (Rvb = 87.00 %)

[12] = AUC (0 to t) in Sprague-Dawley rat at 5 mg/kg, ip measured for 24 hrs by LC-MS/MS analysis; assay type: ADME, organism-based; conditions: in vivo
[13] = Toxicity in BALB/c mouse xenografted with human SNU-16 cells assessed as weight loss at 10 to 20 mg/kg, ip qd for 25 days; assay type: organism-based; conditions: in vivo, 600 h, dose 10-20 mg/kg, time 25 day
BaF3 [14] = assay: Antiproliferative activity against mouse BaF3 cells stably expressing TEL-FGFR3 incubated for 72 hrs bby CellTiter-Glo assay; conditions: BaF3, 72 h
[15] = Toxicity in BALB/c mouse xenografted with human SNU-16 cells assessed as damage in lung at 10 to 20 mg/kg, ip qd for 25 days by H and E staining based analysis; assay type: organism-based; conditions: in vivo, 600 h, dose 10-20 mg/kg, time 25 day
[16] = AUC (infinity) in Sprague-Dawley rat at 2 mg/kg, iv measured for 24 hrs by LC-MS/MS analysis; assay type: ADME, organism-based; conditions: in vivo
[17] = MRT (infinity) in Sprague-Dawley rat at 5 mg/kg, ip measured for 24 hrs by LC-MS/MS analysis; assay type: ADME, organism-based; conditions: in vivo
SNU-16 [18] = assay: Antitumor activity against human SNU-16 cells xenografted in BALB/c mouse at 20 mg/kg, ip qd for 25 days relative to control; conditions: SNU-16, 600 h, read-out: TGI
[19] = AUC (infinity) in Sprague-Dawley rat at 5 mg/kg, ip measured for 24 hrs by LC-MS/MS analysis; assay type: ADME, organism-based; conditions: in vivo
SNU-16 [20] = assay: Antiproliferative activity against human SNU-16 cells incubated for 72 hrs by MTT assay; conditions: SNU-16, 72 h
SNU-16 [21] = assay: Antitumor activity against human SNU-16 cells xenografted in BALB/c mouse assessed as decrease in tumor size at 10 to 20 mg/kg, ip qd for 25 days; assay type: functional, organism-based; conditions: dose 10-20 mg/kg, time 25.0 day
[22] = Toxicity in BALB/c mouse xenografted with human SNU-16 cells assessed as damage in spleen at 10 to 20 mg/kg, ip qd for 25 days by H and E staining based analysis; assay type: organism-based; conditions: in vivo, 600 h, dose 10-20 mg/kg, time 25 day
[23] = Cmax in Sprague-Dawley rat at 5 mg/kg, ip measured for 24 hrs by LC-MS/MS analysis; assay type: ADME, organism-based; conditions: in vivo
[24] = Toxicity in BALB/c mouse xenografted with human SNU-16 cells assessed as damage in heart at 10 to 20 mg/kg, ip qd for 25 days by H and E staining based analysis; assay type: organism-based; conditions: in vivo, 600 h, dose 10-20 mg/kg, time 25 day
[25] = Toxicity in BALB/c mouse xenografted with human SNU-16 cells assessed as obvious side effect at 10 to 20 mg/kg, ip qd for 25 days; assay type: organism-based; conditions: in vivo, 600 h, dose 10-20 mg/kg, time 25 day
[26] = Toxicity in BALB/c mouse xenografted with human SNU-16 cells assessed as damage in kidney at 10 to 20 mg/kg, ip qd for 25 days by H and E staining based analysis; assay type: organism-based; conditions: in vivo, 600 h, dose 10-20 mg/kg, time 25 day
SNU-16 [27] = assay: Induction of apoptosis in human SNU-16 cells assessed as increase in cleaved caspase-3 level at 0.5 to 1 uM incubated for 24 hrs by Western blot analysis; assay type: functional, cell-based; conditions: dose 0.5-1 µM
KATO III [28] = assay: Induction of cell cycle arrest at G0/G1 phase in human KATO III cells assessed as reduction in Cyclin E level at 500 to 1000 nM incubated for 24 hrs by Western blot analysis; assay type: functional, cell-based; conditions: dose 500-1000 nM
[29] = Toxicity in BALB/c mouse xenografted with human SNU-16 cells assessed as drug tolerance at 10 to 20 mg/kg, ip qd for 25 days; assay type: organism-based; conditions: in vivo, 600 h, dose 10-20 mg/kg, time 25 day
[30] = Apparent oral clearance in Sprague-Dawley rat at 5 mg/kg, ip measured for 24 hrs by LC-MS/MS analysis; assay type: ADME, organism-based; conditions: in vivo
SNU-16 [31] = assay: Antitumor activity against human SNU-16 cells xenografted in BALB/c mouse assessed as tumor growth suppression at 10 to 20 mg/kg, ip qd for 25 days; assay type: functional, organism-based; conditions: dose 10-20 mg/kg, time 25.0 day
BaF3 [32] = assay: Antiproliferative activity against mouse BaF3 cells stably expressing TEL-FGFR4 incubated for 72 hrs bby CellTiter-Glo assay; conditions: BaF3, 72 h
BaF3 [33] = assay: Antiproliferative activity against mouse BaF3 cells stably expressing TEL-FGFR2 incubated for 72 hrs bby CellTiter-Glo assay; conditions: BaF3, 72 h
Homo sapiens = species: Homo sapiens; assay: Induction of VEGFR2 (unknown origin) degradation
[34] = Clearance in Sprague-Dawley rat at 2 mg/kg, iv measured for 24 hrs by LC-MS/MS analysis; assay type: ADME, organism-based; conditions: in vivo
KATO III [35] = assay: Induction of cell cycle arrest at G0/G1 phase in human KATO III cells assessed as reduction in Cyclin D1 level at 500 to 1000 nM incubated for 24 hrs by Western blot analysis; assay type: functional, cell-based; conditions: dose 500-1000 nM
SNU-16 [36] = assay: cells; conditions: Homo sapiens, SNU-16, 24 h, read-out: Activity
Description: Induction of apoptosis in human SNU-16 cells assessed as viable cells at 1000 nM incubated for 24 hrs by Annexin V-FITC/PI staining based flow cytometry (Rvb = 77.12 %)

[37] = Antiproliferative activity against human KATO III cells incubated for 72 hrs by MTT assay
KATO III [38] = assay: Induction of cell cycle arrest at G0/G1 phase in human KATO III cells assessed as increase in p21 level at 500 to 1000 nM incubated for 24 hrs by Western blot analysis; assay type: functional, cell-based; conditions: dose 500-1000 nM
[39] = Oral bioavailability in Sprague-Dawley rat at 5 mg/kg measured for 24 hrs by LC-MS/MS analysis; assay type: ADME, organism-based; conditions: in vivo
[40] = MRT (infinity) in Sprague-Dawley rat at 2 mg/kg, iv measured for 24 hrs by LC-MS/MS analysis; assay type: ADME, organism-based; conditions: in vivo
SNU-16 [41] = assay: Induction of cell cycle arrest at G0/G1 phase in human SNU-16 cells assessed as increase in p21 level at 500 to 1000 nM incubated for 24 hrs by Western blot analysis; assay type: functional, cell-based; conditions: dose 500-1000 nM
[42] = Toxicity in BALB/c mouse xenografted with human SNU-16 cells assessed as damage in liver at 10 to 20 mg/kg, ip qd for 25 days by H and E staining based analysis; assay type: organism-based; conditions: in vivo, 600 h, dose 10-20 mg/kg, time 25 day
SNU-16 [43] = assay: cells; conditions: Homo sapiens, SNU-16, 24 h, read-out: Activity; remark: listed apart in the source
Description: Induction of apoptosis in human SNU-16 cells assessed as viable cells at 500 nM incubated for 24 hrs by Annexin V-FITC/PI staining based flow cytometry (Rvb = 77.12 %)

[44] = Volume of distribution at steady state in Sprague-Dawley rat at 2 mg/kg, iv measured for 24 hrs by LC-MS/MS analysis; assay type: ADME, organism-based; conditions: in vivo, read-out: Vdss
[45] = AUC (0 to t) in Sprague-Dawley rat at 2 mg/kg, iv measured for 24 hrs by LC-MS/MS analysis; assay type: ADME, organism-based; conditions: in vivo

Molecule COc1cc(OC)cc(N(CCNC(C)C)c2ccc3ncc(-c4cnn(CCCCCCC(=O)NCCNc5cccc6c5C(=O)N(C5CCC(=O)NC5=O)C6=O)c4)nc3c2)c1 (configuration not stated) has a Tmax [1] of 0.25 h, a viability at 1 µM (cells [2]) of 65% and a half-life [3] of 4.65 h. The Activity (KATO III [4]) was “Active”, the Vd/F [5] was 51.4 L/kg and the Activity (SNU-16 [6]) was “Active”. The half-life [7] was 7.59 h, the Activity (KATO III [8]) was “Active” and the IC50 (BaF3 [9]) was 138 nM. For the same molecule, the Activity (KATO III [10]) was “Active”, the viability at 0.5 µM (cells [11]) was 66.8% and the AUC(0-t) at 24 h [12] was 991 ng·h/mL. For the same molecule, the Activity [13] was “Non-Toxic”, the IC50 (BaF3 [14]) was 97.1 nM and the Activity [15] was “Non-Toxic”. It also gave an AUC(0-inf) [16] of 570 ng·h/mL, an MRT inf [17] of 6.53 h and an inhibition in vivo at 20 mg/kg (SNU-16 [18]) of 117%. For the same molecule, the AUC(0-inf) [19] was 1070 ng·h/mL, the IC50 (SNU-16 [20]) was under 0.17 nM and the Activity (SNU-16 [21]) was “Active”. For the same molecule, the Activity [22] was “Non-Toxic”, the Cmax [23] was 302 ng/mL and the Activity [24] was “Non-Toxic”. The Activity [25] was “Non-Toxic”, the Activity [26] was “Non-Toxic” and the Activity (SNU-16 [27]) was “Active”. For the same molecule, the Activity (KATO III [28]) was “Active”, the Activity [29] was “Non-Toxic” and the CL/F [30] was 78.2 mL/min/kg. For the same molecule, the Activity (SNU-16 [31]) was “Active”, the IC50 (BaF3 [32]) was 332 nM and the IC50 (BaF3 [33]) was 22.7 nM. The Activity (Homo sapiens) was “inactive”, the clearance [34] was 59.3 mL/min/kg and the Activity (KATO III [35]) was “Active”. The viability at 1 µM (SNU-16 [36]) was 42.7%, the IC50 [37] was under 0.17 nM and the Activity (KATO III [38]) was “Active”. For the same molecule, the bioavailability [39] was 74.8%, the MRT inf [40] was 2.27 h and the Activity (SNU-16 [41]) was “Active”. The Activity [42] was “Non-Toxic”, the viability at 0.5 µM (SNU-16 [43]) was 45.6% and the Vd [44] was 7.58 L/kg. It also gave an AUC(0-t) at 24 h [45] of 544 ng·h/mL.

For COc1cc(OC)cc(N(CCNC(C)C)c2ccc3ncc(-c4cnn(CCCCCC(=O)NCCNc5cccc6c5C(=O)N(C5CCC(=O)NC5=O)C6=O)c4)nc3c2)c1 (configuration not stated), the IC50 (SNU-16 [20]) was 1 nM and the IC50 [37] was 51 nM.

In the case of COc1cc(OC)cc(N(CCNC(C)C)c2ccc3ncc(-c4cnn(CCCC(=O)NCC(=O)NCCNc5cccc6c5C(=O)N(C5CCC(=O)NC5=O)C6=O)c4)nc3c2)c1 (configuration not stated), the IC50 (SNU-16 [20]) is reported as 22 nM and the IC50 [37] is reported as 2 nM.

Work on COc1cc(OC)cc(N(CCNC(C)C)c2ccc3ncc(-c4cnn(CCOCCOCC(=O)NCCNc5cccc6c5C(=O)N(C5CCC(=O)NC5=O)C6=O)c4)nc3c2)c1 (configuration not stated) yielded an IC50 (SNU-16 [20]) of 1 nM and an IC50 [37] of 208 nM.
